According to ChEMBL document CHEMBL6115002, “Discovery of novel sitolactone derivative leading to PANoptosis and differentiation of acute myeloid leukemia cells” (Eur J Med Chem, 2025):
The source made the active and inactive calls. The rule behind the calls is not given here.

How the values were obtained:
[1] = test system: MV4-11; assay: Antiproliferative activity against human MV4-11 cells assessed as inhibition cell proliferation incubated for 72 hrs by MTT assay; format: functional, cell-based; settings: MV4-11, 72 h
[2] = Antiproliferative activity against mouse WEHI-3 cells assessed as inhibition cell proliferation incubated for 72 hrs by MTT assay; format: functional, cell-based; settings: WEHI-3, 72 h
[3] = test system: Kasumi 1; assay: Antiproliferative activity against human Kasumi 1 cells assessed as inhibition cell proliferation incubated for 72 hrs by MTT assay; format: functional, cell-based; settings: Kasumi 1, 72 h
[4] = test system: HCT-116; assay: Inhibition of tumor sphere formation in human HCT-116 cells at 1.25 uM incubated for 24 hrs; format: functional, cell-based
[5] = Permeability of compound in human Caco-2 cells; format: ADME, cell-based

Compound	IC50 [1] [µM]	IC50 [2] [µM]	IC50 [3] [µM]	inhibition [4]	permeability [5]
C=C1C[C@@H]2[C@@H](CC[C@]3(C)[C@@H](O[Si](C)(C)CCCCCCCCCCCCCCCCCC)CC[C@@H]23)OC1=O	8.89	6.25	5.93	–	–
C=C1C[C@@H]2[C@@H](CC[C@]3(C)[C@@H](OS(=O)(=O)c4cccnc4)CC[C@@H]23)OC1=O	> 20	13.3	10.9	–	–
C=C1C[C@@H]2[C@@H](CC[C@]3(C)[C@@H](O[Si](C)(C)C)CC[C@@H]23)OC1=O	> 20	14.2	16.3	–	–
C=C1C[C@@H]2[C@@H](CC[C@]3(C)[C@@H](O[Si](C)(C)CCCCl)CC[C@@H]23)OC1=O	> 20	> 20	> 20	–	–
C=C1C[C@@H]2[C@@H](CC[C@]3(C)[C@@H](OS(=O)(=O)c4ccc(C)cc4)CC[C@@H]23)OC1=O	9.46	9.28	8.25	–	–
C=C1C[C@@H]2[C@@H](CC[C@]3(C)[C@@H](O[Si](CC)(CC)CC)CC[C@@H]23)OC1=O	4.53	2.14	2.97	–	–
C=C1C[C@@H]2[C@@H](CC[C@]3(C)[C@@H](OC(=O)c4ccc(C(F)(F)F)cn4)CC[C@@H]23)OC1=O	14.2	8.21	15.3	–	–
C=C1C[C@@H]2[C@@H](CC[C@]3(C)[C@@H](OC=O)CC[C@@H]23)OC1=O	> 20	13.7	16.4	–	–
C=C1C[C@@H]2[C@@H](CC[C@]3(C)[C@@H](OC(c4ccccc4)(c4ccccc4)c4ccccc4)CC[C@@H]23)OC1=O	2.68	1.03	1.85	inactive	Permeable
C=C1C[C@@H]2[C@@H](CC[C@]3(C)[C@@H](OC(=O)c4ccc(F)cc4)CC[C@@H]23)OC1=O	13.4	6.27	10.4	–	–
C=C1C[C@@H]2[C@@H](CC[C@]3(C)[C@@H](O[Si](c4ccccc4)(c4ccccc4)C(C)(C)C)CC[C@@H]23)OC1=O	3.89	1.37	1.51	–	–
C=C1C[C@@H]2[C@@H](CC[C@]3(C)[C@@H](OC(C)(C)C)CC[C@@H]23)OC1=O	11.7	7.17	8.98	–	–
C=C1C[C@@H]2[C@@H](CC[C@]3(C)[C@@H](OS(=O)(=O)c4c(C)noc4C)CC[C@@H]23)OC1=O	15.9	13.3	14.3	–	–
C=C1C[C@@H]2[C@@H](CC[C@]3(C)[C@@H](OS(=O)(=O)c4cccs4)CC[C@@H]23)OC1=O	8.71	8.25	9.32	–	–
C=C1C[C@@H]2[C@@H](CC[C@]3(C)[C@@H](OC(=O)C4CC4)CC[C@@H]23)OC1=O	> 20	> 20	> 20	–	–
C=C1C[C@@H]2[C@@H](CC[C@]3(C)[C@@H](O[Si](C)(C)C(C)(C)C)CC[C@@H]23)OC1=O	8.36	2.36	3.72	–	–
C=C1C[C@@H]2[C@@H](CC[C@]3(C)[C@@H](O)CC[C@@H]23)OC1=O	> 20	12.6	> 20	–	–
C=C1C[C@@H]2[C@@H](CC[C@]3(C)[C@@H](OS(=O)(=O)C[C@]45CC[C@](C)(C(=O)C4)C5(C)C)CC[C@@H]23)OC1=O	12.3	8.29	9.8	–	–
C=C1C[C@@H]2[C@@H](CC[C@]3(C)[C@@H](OC(c4ccccc4)(c4ccc(OC)cc4)c4ccc(OC)cc4)CC[C@@H]23)OC1=O	3.04	0.94	1.46	inactive	Permeable
C=C1C[C@@H]2[C@@H](CC[C@]3(C)[C@@H](OC(=O)c4ccc(-c5ccccc5)cc4)CC[C@@H]23)OC1=O	20	14.3	18.1	–	–
C=C1C[C@@H]2[C@@H](CC[C@]3(C)[C@@H](O[Si](OCC)(OCC)OCC)CC[C@@H]23)OC1=O	> 20	> 20	> 20	–	–
C=C1C[C@@H]2[C@@H](CC[C@]3(C)[C@@H](O[Si](OC)(OC)OC)CC[C@@H]23)OC1=O	> 20	> 20	> 20	–	–
C=C1C[C@@H]2[C@@H](CC[C@]3(C)[C@@H](OC(=O)c4ccc(CC)cc4)CC[C@@H]23)OC1=O	16.4	6.73	10.3	–	–

Compound	IC50 [1] [µM]	IC50 [2] [µM]	IC50 [3] [µM]	inhibition [4]	permeability [5]
C=C[Si](C)(C)O[C@H]1CC[C@H]2[C@@H]3CC(=C)C(=O)O[C@@H]3CC[C@]12C	> 20	> 20	> 20	–	–
C=C1C[C@@H]2[C@@H](CC[C@]3(C)[C@@H](OS(=O)(=O)CCN4C(=O)c5ccccc5C4=O)CC[C@@H]23)OC1=O	15.4	9.17	7.82	–	–
C=C1C[C@@H]2[C@@H](CC[C@]3(C)[C@@H](OC(=O)c4ccc(OC)cc4)CC[C@@H]23)OC1=O	> 20	9.43	15.4	–	–
C=C1C[C@@H]2[C@@H](CC[C@]3(C)[C@@H](OC(=O)c4ccccc4)CC[C@@H]23)OC1=O	16	10.3	18.8	–	–
C=C1C[C@@H]2[C@@H](CC[C@]3(C)[C@@H](OS(=O)(=O)c4ccsc4C(=O)OC)CC[C@@H]23)OC1=O	> 20	18	> 20	–	–
C=C1C[C@@H]2[C@@H](CC[C@]3(C)[C@@H](O[Si](c4ccccc4)(c4ccccc4)c4ccccc4)CC[C@@H]23)OC1=O	5.32	4.61	5.86	–	–
C#CCCCC(=O)O[C@H]1CC[C@H]2[C@@H]3CC(=C)C(=O)O[C@@H]3CC[C@]12C	> 20	> 20	> 20	–	–
C=C1C[C@@H]2[C@@H](CC[C@]3(C)[C@@H](O[Si](C)(C)C4CCCCC4)CC[C@@H]23)OC1=O	10.4	7.96	9.25	–	–
C=C1C[C@@H]2[C@@H](CC[C@]3(C)[C@@H](OC(c4ccccc4)c4ccccc4)CC[C@@H]23)OC1=O	4.66	3.58	2.89	–	–
C=C[Si](C)(O[C@H]1CC[C@H]2[C@@H]3CC(=C)C(=O)O[C@@H]3CC[C@]12C)c1ccccc1 (some centres undefined)	> 20	15.4	16.3	–	–
C=C1C[C@@H]2[C@@H](CC[C@]3(C)[C@@H](OC(=O)c4ccc(C(F)(F)F)cc4)CC[C@@H]23)OC1=O	16.6	10.2	9.97	–	–
C=C1C[C@@H]2[C@@H](CC[C@]3(C)[C@@H](OC(=O)c4ccccn4)CC[C@@H]23)OC1=O	16.6	8.85	13.7	–	–
CC(C)[Si](O[C@H]1CC[C@H]2[C@@H]3CCC(=O)O[C@@H]3CC[C@]12C)(C(C)C)C(C)C	> 20	> 20	> 20	–	–
C=C1C[C@@H]2[C@@H](CC[C@]3(C)[C@@H](OS(=O)(=O)CCC)CC[C@@H]23)OC1=O	> 20	> 20	> 20	–	–
C=C1C[C@@H]2[C@@H](CC[C@]3(C)[C@@H](OS(=O)(=O)CCCCCCC)CC[C@@H]23)OC1=O	> 20	> 20	> 20	–	–
C=C1C[C@@H]2[C@@H](CC[C@]3(C)[C@@H](O[Si](C)(C)C(C)C)CC[C@@H]23)OC1=O	> 20	> 20	> 20	–	–
C=C1C[C@@H]2[C@@H](CC[C@]3(C)[C@@H](OC(=O)C4CCCC4)CC[C@@H]23)OC1=O	> 20	15.3	> 20	–	–
C=C1C[C@@H]2[C@@H](CC[C@]3(C)[C@@H](OS(=O)(=O)c4ccc(C#N)cc4)CC[C@@H]23)OC1=O	9.13	7.62	8.92	–	–
C=C1C[C@@H]2[C@@H](CC[C@]3(C)[C@@H](OS(=O)(=O)c4ccc(OC)cc4)CC[C@@H]23)OC1=O	14.6	9.29	8.36	–	–
C=C1C[C@@H]2[C@@H](CC[C@]3(C)[C@@H](O[Si](CCC)(CCC)CCC)CC[C@@H]23)OC1=O	2.17	1.46	1.29	–	–
C[C@]12CC[C@H]3OC(=O)CC[C@H]3[C@@H]1CCC2=O	> 100	> 100	> 100	–	–
C=C1C[C@@H]2[C@@H](CC[C@]3(C)[C@@H](OS(=O)(=O)Cc4ccccc4)CC[C@@H]23)OC1=O	> 20	18.6	15.3	–	–
